Results: PMC12426469, “A Covalent and Modulable Inhibitor of the Tubulin‐Microtubule System: Insights Into the Mechanism of Cacalol” (Chemical Biology & Drug Design, 2025)

Target: T1, α-tubulin (Sus scrofa, UniProt P02550)
T1 construct: gene TUBA1A; purified porcine brain α,β-tubulin; modified peptide 340SIQFVDWCPTGFK352 of α-tubulin; with β-tubulin
Test: LC-MS of trypsin-digested tubulin showing covalent adduct; IC50 from in vitro tubulin polymerization assay
Assay type: biochemical

T1 sequence (P02550 whole entry): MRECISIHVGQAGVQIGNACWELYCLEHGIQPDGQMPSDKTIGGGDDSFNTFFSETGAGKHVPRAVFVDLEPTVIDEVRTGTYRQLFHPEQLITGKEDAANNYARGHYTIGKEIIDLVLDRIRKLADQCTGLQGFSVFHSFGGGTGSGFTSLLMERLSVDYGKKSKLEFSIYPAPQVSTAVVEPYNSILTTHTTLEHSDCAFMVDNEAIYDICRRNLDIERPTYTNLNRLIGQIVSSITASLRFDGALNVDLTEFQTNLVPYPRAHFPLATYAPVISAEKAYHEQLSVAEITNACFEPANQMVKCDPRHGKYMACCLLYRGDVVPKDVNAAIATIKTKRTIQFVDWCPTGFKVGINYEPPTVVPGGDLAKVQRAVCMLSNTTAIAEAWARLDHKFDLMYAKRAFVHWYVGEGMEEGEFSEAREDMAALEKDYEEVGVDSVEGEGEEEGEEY
T1 sequence (P02554 whole entry partner): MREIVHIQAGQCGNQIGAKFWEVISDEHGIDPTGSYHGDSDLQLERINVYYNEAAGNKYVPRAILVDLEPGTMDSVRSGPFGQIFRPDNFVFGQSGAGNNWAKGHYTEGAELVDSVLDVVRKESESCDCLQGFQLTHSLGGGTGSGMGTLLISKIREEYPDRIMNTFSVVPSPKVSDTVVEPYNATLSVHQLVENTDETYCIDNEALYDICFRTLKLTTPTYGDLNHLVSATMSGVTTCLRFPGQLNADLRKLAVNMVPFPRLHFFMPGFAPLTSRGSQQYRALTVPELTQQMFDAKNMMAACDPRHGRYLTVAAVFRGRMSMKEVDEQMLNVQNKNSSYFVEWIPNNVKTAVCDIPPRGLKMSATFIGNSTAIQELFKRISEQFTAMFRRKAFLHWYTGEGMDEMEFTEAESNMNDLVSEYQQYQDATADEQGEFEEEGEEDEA

- IC50: 43 µM
SMILES: C=C1C2=C(CCC[C@@H]2C)C(=O)c2occ(C)c21 [compound 2, (S)‐3,5‐Dimethyl‐4‐Methylene‐5,6,7,8‐Tetrahydronaphtho[2,3‐b]Furan‐9(4H )‐One]
